Test results: ChEMBL document CHEMBL4118187, “In vitro activity of salicylamide derivatives against vancomycin-resistant enterococci” (Bioorg Med Chem Lett, 2018)
Converted amounts (≈) assume the structure as drawn. The source made the active and inactive calls. No cut-off for these calls is given here.

How the values were obtained:
[1] = system: Enterococcus faecalis; test: Antibacterial activity against vancomycin-resistant Enterococcus faecalis 725B assessed as compound concentration causing additive effect after 18 hrs in presence of ciprofloxacin by checkerboard assay; type: functional
[2] = system: Enterococcus faecalis; test: Antibacterial activity against vancomycin-resistant Enterococcus faecalis 342B in presence of tetracycline after 18 hrs by checkerboard assay; type: functional
[3] = system: Enterococcus faecalis; test: Antibacterial activity against vancomycin-resistant Enterococcus faecalis 725B in presence of ciprofloxacin after 18 hrs by checkerboard assay; type: functional
[4] = system: Enterococcus faecalis; test: Antibacterial activity against vancomycin-resistant Enterococcus faecalis 342B assessed as compound concentration causing additive effect after 18 hrs in presence of vancomycin by checkerboard assay; type: functional
[5] = system: Enterococcus faecalis; test: Antibacterial activity against vancomycin-resistant Enterococcus faecalis 725B after 24 hrs; type: functional
[6] = system: Enterococcus faecalis; test: Antibacterial activity against vancomycin-resistant Enterococcus faecalis 342B in presence of vancomycin after 18 hrs by checkerboard assay; type: functional
[7] = system: Enterococcus faecalis; test: Antibacterial activity against vancomycin-resistant Enterococcus faecalis 368 assessed as tetracycline concentration causing additive effect after 18 hrs after 18 hrs by checkerboard assay; type: functional
[8] = system: Enterococcus faecalis; test: Antibacterial activity against vancomycin-resistant Enterococcus faecalis 342B assessed as vancomycin concentration causing additive effect after 18 hrs by checkerboard assay; type: functional
[9] = system: Enterococcus faecalis; test: Antibacterial activity against vancomycin-resistant Enterococcus faecalis 342B after 24 hrs; type: functional
[10] = system: Enterococcus faecalis; test: Antibacterial activity against vancomycin-resistant Enterococcus faecalis 368 in presence of vancomycin after 18 hrs by checkerboard assay; type: functional
[11] = system: Enterococcus faecalis; test: Antibacterial activity against vancomycin-susceptible Enterococcus faecalis ATCC 29212 after 24 hrs; type: functional; settings: ATCC 29212, 24 h
[12] = system: Enterococcus faecalis; test: Antibacterial activity against vancomycin-resistant Enterococcus faecalis 368 assessed as compound concentration causing additive effect after 18 hrs in presence of vancomycin after 18 hrs by checkerboard assay; type: functional
[13] = system: Enterococcus faecalis; test: Antibacterial activity against vancomycin-resistant Enterococcus faecalis 368 assessed as vancomycin concentration causing synergistic effect after 18 hrs by checkerboard assay; type: functional
[14] = system: Enterococcus faecalis; test: Antibacterial activity against vancomycin-resistant Enterococcus faecalis 368 after 24 hrs; type: functional; settings: Enterococcus faecalis, 368, 24 h
[15] = system: Enterococcus faecalis; test: Antibacterial activity against vancomycin-resistant Enterococcus faecalis 725B assessed as ciprofloxacin concentration causing additive effect after 18 hrs by checkerboard assay; type: functional
[16] = system: Enterococcus faecalis; test: Antibacterial activity against vancomycin-resistant Enterococcus faecalis 368 in presence of tetracycline after 18 hrs by checkerboard assay; type: functional
[17] = system: Enterococcus faecalis; test: Antibacterial activity against vancomycin-resistant Enterococcus faecalis 368 assessed as compound concentration causing synergistic effect after 18 hrs in presence of vancomycin by checkerboard assay; type: functional
[18] = system: Enterococcus faecalis; test: Antibacterial activity against vancomycin-resistant Enterococcus faecalis 368 assessed as vancomycin concentration causing additive effect after 18 hrs after 18 hrs by checkerboard assay; type: functional
[19] = system: Enterococcus faecalis; test: Antibacterial activity against vancomycin-resistant Enterococcus faecalis 725B in presence of vancomycin after 18 hrs by checkerboard assay; type: functional
[20] = system: Enterococcus faecalis; test: Antibacterial activity against vancomycin-resistant Enterococcus faecalis 368 assessed as compound concentration causing additive effect after 18 hrs in presence of tetracycline after 18 hrs by checkerboard assay; type: functional
[21] = system: Enterococcus faecalis; test: Antibacterial activity against vancomycin-resistant Enterococcus faecalis 725B in presence of tetracycline after 18 hrs by checkerboard assay; type: functional
[22] = system: Enterococcus faecalis; test: Antibacterial activity against vancomycin-resistant Enterococcus faecalis 342B assessed as tetracycline concentration causing additive effect after 18 hrs by checkerboard assay; type: functional
[23] = system: Enterococcus faecalis; test: Bacteriostatic activity against vancomycin-resistant Enterococcus faecalis 725B up to 24 hrs by time kill assay; type: functional, organism-based
[24] = system: Enterococcus faecalis; test: Bacteriostatic activity against vancomycin-resistant Enterococcus faecalis 342B up to 24 hrs by time kill assay; type: functional, organism-based
[25] = system: Enterococcus faecalis; test: Antibacterial activity against vancomycin-resistant Enterococcus faecalis 342B assessed as compound concentration causing additive effect after 18 hrs in presence of tetracycline by checkerboard assay; type: functional

Row | Compound | Activity [1] [µg/mL] | FIC [2] | FIC [3] | Activity [4] [µg/mL] | MBC [5] [µM] | MIC [5] [µM] | FIC [6] | Activity [7] [µg/mL] | Activity [8] [µg/mL] | MBC [9] [µM] | MIC [9] [µM] | FIC [10] | MBC [11] [µM] | MIC [11] [µM] | Activity [12] [µg/mL] | MBC [14] [µM] | MIC [14] [µM] | Activity [15] [µg/mL] | FIC [16] | Activity [18] [µg/mL] | also measured
1 | O=C(Nc1ccc(C(F)(F)F)cc1)c1cc(Cl)ccc1O | 0.125 | 1.008 - 1.5 | 0.532 - 1.125 | 0.5 | 25.3 (≈ 8 µg/mL) | 0.792 (≈ 0.25 µg/mL) | 0.75 - 1.25 | 8 | 256 | 25.3 (≈ 8 µg/mL) | 0.396 (≈ 0.125 µg/mL) | 0.375 - 1.064 | 6.34 (≈ 2 µg/mL) | 0.199 (≈ 0.0628 µg/mL) | 0.25 | > 810 | 3.16 (≈ 0.998 µg/mL) | 32 | 0.625 - 1.25 | 32 | Activity [13]: 128 µg/mL; Activity [17]: 0.125 µg/mL; FIC [19]: 1 - 1.25; Activity [20]: 0.25 µg/mL; FIC [21]: 1.032 - 1.5
2 | O=C(Nc1ccc([N+](=O)[O-])cc1)c1cc(Cl)ccc1O | 0.008 | 0.75 - 1.25 | 1 - 1.25 | 0.063 | 6.83 (≈ 2 µg/mL) | 3.42 (≈ 1 µg/mL) | 1 - 2.25 | 16 | 64 | 6.83 (≈ 2 µg/mL) | 1.71 (≈ 0.5 µg/mL) | 0.625 - 1.25 | 6.83 (≈ 2 µg/mL) | 0.85 (≈ 0.249 µg/mL) | 0.063 | > 874 | 13.7 (≈ 4 µg/mL) | 64 | 0.75 - 1.25 | 512 | Activity [22]: 16 µg/mL; Activity [23]: Active; Activity [24]: Active; Activity [25]: 0.5 µg/mL; FIC [19]: 1.063 - 1.5; Activity [20]: 1 µg/mL; FIC [21]: 1.032 - 2.125
